Measured values: ChEMBL document CHEMBL4765232 (J Med Chem, 2016)
Activity calls are given as the source filed them. The rule behind the calls is not given here.

Key:
[1] = Toxicity in Beagle dog at 50 to 500 mg/kg, po BID administered via gavage […] for 28 days; format: organism-based, Canis lupus familiaris; conditions: in vivo, 672 h, dose 50-500 mg/kg, time 28 day
[2] = Protein binding in human plasma assessed as bound fraction; format: ADME, cell-free; conditions: read-out: PPB (converted)
[3] = Clearance in Beagle dog at 1 mg/kg, iv; format: ADME, organism-based, Canis lupus familiaris; conditions: in vivo
[4] = biological target: Voltage-gated inwardly rectifying potassium channel KCNH2 (Homo sapiens, UniProt Q12809)
Description: Binding affinity to human ERG

[5] = Protein binding in mouse plasma assessed as bound fraction; format: ADME, cell-free
[6] = Cmax in Beagle dog at 5 mg/kg, po; format: ADME, organism-based, Canis lupus familiaris; set-up: route oral, dose 5 mg/kg; conditions: in vivo
Cytochrome P450 1A2 = biological target: T1, Cytochrome P450 1A2 (Homo sapiens, UniProt P05177); experiment: Time dependent inhibition of CYP1A2 (unknown origin); format: ADME
T1 sequence (P05177 whole entry): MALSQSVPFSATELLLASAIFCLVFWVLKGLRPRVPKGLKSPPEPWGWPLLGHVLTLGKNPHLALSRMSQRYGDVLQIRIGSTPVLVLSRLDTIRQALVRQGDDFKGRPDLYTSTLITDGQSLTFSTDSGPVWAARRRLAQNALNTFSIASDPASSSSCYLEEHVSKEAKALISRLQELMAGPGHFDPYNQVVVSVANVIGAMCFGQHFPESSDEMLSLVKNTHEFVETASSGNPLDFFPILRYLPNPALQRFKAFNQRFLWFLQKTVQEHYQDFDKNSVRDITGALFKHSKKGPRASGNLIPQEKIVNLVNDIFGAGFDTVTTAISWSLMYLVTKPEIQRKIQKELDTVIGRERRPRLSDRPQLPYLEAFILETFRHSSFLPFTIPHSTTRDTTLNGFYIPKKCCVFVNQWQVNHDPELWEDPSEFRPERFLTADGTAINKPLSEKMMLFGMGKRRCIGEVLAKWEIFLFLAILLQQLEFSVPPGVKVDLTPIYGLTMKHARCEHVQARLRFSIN

[7] = Volume of distribution at steady state in Beagle dog at 1 mg/kg, iv; format: ADME, organism-based, Canis lupus familiaris; conditions: in vivo, read-out: Vdss
[8] = Oral bioavailability in Sprague-Dawley rat at 25 mg/kg; format: ADME, organism-based; conditions: in vivo
[9] = Fraction unbound in mouse plasma; format: ADME, cell-free
Cytochrome P450 2C9 = Cytochrome P450 2C9 (Homo sapiens, UniProt P11712); experiment: Time dependent inhibition of CYP2C9 (unknown origin); format: ADME
[10] = Intrinsic clearance in mouse liver microsomes assessed per mg protein; format: ADME, Microsome
[11] = Unbound Cmax in Balb/c mouse at 100 mg/kg, po formulated in 0.5 % methyl cellulose maintained at pH 3 to 4; format: ADME, organism-based; conditions: in vivo, pH 3, 100 mg/kg
[12] = Clearance in Balb/c mouse at 1 mg/kg, iv formulated with 5:60:35 DMA/PEG400/20% SBECD relative to liver blood flow; format: ADME, organism-based; conditions: in vivo
[13] = Clearance in Sprague-Dawley rat at 1 mg/kg, iv; format: ADME, organism-based; conditions: in vivo
[14] = Tmax in Beagle dog at 5 mg/kg, po; format: ADME, organism-based, Canis lupus familiaris; conditions: in vivo
Cytochrome P450 2C8 = biological target: T2, Cytochrome P450 2C8 (Homo sapiens, UniProt P10632); experiment: Time dependent inhibition of CYP2C8 (unknown origin); format: ADME
T2 sequence (P10632 whole entry): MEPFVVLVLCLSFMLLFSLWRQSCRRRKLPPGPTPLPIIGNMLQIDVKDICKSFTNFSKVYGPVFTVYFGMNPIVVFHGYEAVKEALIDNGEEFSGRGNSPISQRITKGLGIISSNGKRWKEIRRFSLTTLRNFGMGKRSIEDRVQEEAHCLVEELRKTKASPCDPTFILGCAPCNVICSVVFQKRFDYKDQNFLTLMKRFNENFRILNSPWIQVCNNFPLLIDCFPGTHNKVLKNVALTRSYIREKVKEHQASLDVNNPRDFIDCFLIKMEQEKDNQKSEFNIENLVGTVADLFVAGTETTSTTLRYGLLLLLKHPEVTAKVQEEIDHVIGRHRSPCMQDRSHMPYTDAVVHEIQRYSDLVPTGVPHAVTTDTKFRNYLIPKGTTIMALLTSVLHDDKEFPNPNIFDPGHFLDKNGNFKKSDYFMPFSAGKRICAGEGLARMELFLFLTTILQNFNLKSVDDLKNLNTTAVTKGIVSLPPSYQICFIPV

CYP3A4 = CYP3A4 (Homo sapiens, UniProt P08684); experiment: Inhibition of CYP3A4 (unknown origin) at 10 uM relative to control; format: ADME
KARPAS-422 = experiment: Antitumor activity against human KARPAS-422 cells harboring EZH2 Y641N mutant xenografted in CB17 SCID mouse assessed as tumor regression at 160 mg/kg, po BID and measured within 2 weeks by caliper method; format: functional, organism-based
[15] = AUC (0 to infinity) in Balb/c mouse at 100 mg/kg, po formulated in 0.5 % methyl cellulose maintained at pH 3 to 4; format: ADME, organism-based; set-up: time infinity, route oral, dose 100 mg/kg; conditions: in vivo, pH 3, 100 mg/kg
[16] = Unbound clearance in Beagle dog at 1 mg/kg, iv; format: ADME, organism-based, Canis lupus familiaris; conditions: in vivo
CYP1A2 = biological target: T3, CYP1A2 (Homo sapiens, UniProt P05177); experiment: Inhibition of CYP1A2 (unknown origin) at 10 uM relative to control; format: ADME
T3 sequence (P05177 whole entry): T1 sequence (P05177 whole entry)

[17] = Cmax in Sprague-Dawley rat at 25 mg/kg, po; format: ADME, organism-based; set-up: route oral, dose 25 mg/kg; conditions: in vivo
CYP2C9 = CYP2C9 (Homo sapiens, UniProt P11712); experiment: Inhibition of CYP2C9 (unknown origin) at 10 uM relative to control; format: ADME
[18] = Clearance in Beagle dog at 1 mg/kg, iv relative to liver blood flow; format: ADME, organism-based, Canis lupus familiaris; conditions: in vivo
[19] = Drug concentration in plasma of CB17 SCID mouse xenografted with human KARPAS-422 cells at 160 mg/kg, po BID administered for 17 days and measured up to 12 hrs post last dose by LC-MS analysis; format: ADME, organism-based; conditions: time 17 day
[20] = Clearance in Sprague-Dawley rat at 1 mg/kg, iv relative to liver blood flow; format: ADME, organism-based; conditions: in vivo
[21] = Tmax in Sprague-Dawley rat at 25 mg/kg, po; format: ADME, organism-based; conditions: in vivo
[22] = Unbound AUC in Balb/c mouse at 100 mg/kg, po formulated in 0.5 % methyl cellulose maintained at pH 3 to 4; format: ADME, organism-based; conditions: in vivo, pH 3, 100 mg/kg

Sequence of Cytochrome P450 2C9 (P11712 whole entry): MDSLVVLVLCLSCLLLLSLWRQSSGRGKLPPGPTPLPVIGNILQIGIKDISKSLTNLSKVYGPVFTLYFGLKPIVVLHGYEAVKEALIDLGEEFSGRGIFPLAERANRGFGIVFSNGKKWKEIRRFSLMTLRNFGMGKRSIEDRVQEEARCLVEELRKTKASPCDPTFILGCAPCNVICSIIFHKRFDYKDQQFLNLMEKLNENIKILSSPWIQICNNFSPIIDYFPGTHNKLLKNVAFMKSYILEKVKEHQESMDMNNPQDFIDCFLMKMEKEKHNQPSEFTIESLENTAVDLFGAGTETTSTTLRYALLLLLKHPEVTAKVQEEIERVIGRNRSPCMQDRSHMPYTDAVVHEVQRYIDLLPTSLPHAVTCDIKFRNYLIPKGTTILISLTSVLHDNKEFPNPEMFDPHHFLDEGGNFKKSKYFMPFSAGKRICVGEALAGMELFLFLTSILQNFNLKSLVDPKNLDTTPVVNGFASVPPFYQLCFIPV
Sequence of CYP2C9 (P11712 whole entry): as above
Sequence of Voltage-gated inwardly rectifying potassium channel KCNH2 (Q12809 whole entry): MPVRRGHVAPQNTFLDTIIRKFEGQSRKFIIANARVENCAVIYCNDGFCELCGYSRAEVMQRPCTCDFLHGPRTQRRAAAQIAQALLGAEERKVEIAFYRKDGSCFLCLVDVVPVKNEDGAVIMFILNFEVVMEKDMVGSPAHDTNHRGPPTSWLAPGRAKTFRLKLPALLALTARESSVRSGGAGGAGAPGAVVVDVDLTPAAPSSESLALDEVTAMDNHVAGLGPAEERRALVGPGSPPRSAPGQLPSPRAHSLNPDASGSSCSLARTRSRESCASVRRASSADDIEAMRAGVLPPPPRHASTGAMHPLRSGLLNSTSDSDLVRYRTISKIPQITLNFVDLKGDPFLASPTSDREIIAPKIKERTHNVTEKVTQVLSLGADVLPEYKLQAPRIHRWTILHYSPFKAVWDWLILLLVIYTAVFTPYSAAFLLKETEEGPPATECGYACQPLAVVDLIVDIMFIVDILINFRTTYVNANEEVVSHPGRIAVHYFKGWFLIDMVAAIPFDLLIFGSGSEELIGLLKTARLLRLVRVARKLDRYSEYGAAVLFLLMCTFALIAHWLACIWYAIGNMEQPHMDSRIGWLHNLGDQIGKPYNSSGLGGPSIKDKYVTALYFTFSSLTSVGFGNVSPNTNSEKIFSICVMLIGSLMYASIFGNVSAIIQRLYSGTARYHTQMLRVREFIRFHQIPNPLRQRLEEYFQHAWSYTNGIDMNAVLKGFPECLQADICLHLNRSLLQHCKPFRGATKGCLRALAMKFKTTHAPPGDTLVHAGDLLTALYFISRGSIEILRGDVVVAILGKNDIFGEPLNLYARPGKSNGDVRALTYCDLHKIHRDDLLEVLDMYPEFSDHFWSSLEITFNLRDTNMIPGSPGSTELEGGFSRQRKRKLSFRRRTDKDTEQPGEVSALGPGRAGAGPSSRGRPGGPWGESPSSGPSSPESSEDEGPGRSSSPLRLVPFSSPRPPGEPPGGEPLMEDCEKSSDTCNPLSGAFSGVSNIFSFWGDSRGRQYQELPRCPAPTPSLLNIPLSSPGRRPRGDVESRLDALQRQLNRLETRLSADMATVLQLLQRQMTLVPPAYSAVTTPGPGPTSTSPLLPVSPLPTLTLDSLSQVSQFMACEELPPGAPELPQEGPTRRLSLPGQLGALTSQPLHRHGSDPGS
Sequence of CYP3A4 (P08684 whole entry): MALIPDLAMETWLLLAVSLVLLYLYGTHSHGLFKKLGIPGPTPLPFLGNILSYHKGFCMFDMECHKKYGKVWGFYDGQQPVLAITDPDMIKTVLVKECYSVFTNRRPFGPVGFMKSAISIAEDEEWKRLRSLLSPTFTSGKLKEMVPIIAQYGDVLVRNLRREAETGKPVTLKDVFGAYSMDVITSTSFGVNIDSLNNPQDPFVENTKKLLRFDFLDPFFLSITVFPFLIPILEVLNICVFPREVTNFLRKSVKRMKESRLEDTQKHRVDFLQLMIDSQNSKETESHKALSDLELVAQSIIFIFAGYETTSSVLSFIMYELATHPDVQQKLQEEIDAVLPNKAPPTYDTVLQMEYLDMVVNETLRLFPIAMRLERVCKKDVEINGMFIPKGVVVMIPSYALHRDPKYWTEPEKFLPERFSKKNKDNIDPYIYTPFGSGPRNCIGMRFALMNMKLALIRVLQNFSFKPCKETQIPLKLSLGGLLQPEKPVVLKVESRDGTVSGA

With `COc1cc(C)[nH]c(=O)c1CNC(=O)c1c(C)n([C@H](C)C2CCN(CC(F)(F)F)CC2)c2ccccc12` [CPI-1205] the Activity [1] was “Non-Toxic”, the fraction unbound [2] was 0.072 and the clearance [3] was 1.41 L/h/kg. For the same compound, the IC50 [4] was 21.3 µM, the PPB [5] was 97.9% and the Cmax [6] was 1.24 µM. The TDI (Cytochrome P450 1A2) was “Not Active”, the Vd [7] was 1.6 L/kg and the F [8] was 44.6%. For the same compound, the Fu [9] was 0.021%, the TDI (Cytochrome P450 2C9) was “Not Active” and the CLH [10] was 159 µL/min. It also gave a fCmax [11] of 1.41 µM, a CL [12] of 40% and a clearance [13] of 3.19 L/h/kg. The Tmax [14] was 1.67 h, the TDI (Cytochrome P450 2C8) was “Not Active” and the inhibition at 10 µM (CYP3A4) was 0%. The Activity (KARPAS-422) was “Active”, the AUC [15] was 88.88 µM·h and the CL free [16] was 14.5 L/h/kg. For the same compound, the inhibition at 10 µM (CYP1A2) was 15%, the Cmax [17] was 5.88 µM and the inhibition at 10 µM (CYP2C9) was 11.1%. The CL [18] was 76%, the concentration at 408 h [19] was 11.4 µg/mL and the CL [20] was 97%. The Tmax [21] was 0.5 h and the fAUC [22] was 1.87 µM·h.
